One assay deals with paresis/paralysis. To be noted: immediate or sustained release formulations; earlier application; cited from earlier work.
The test system of assay [1] is MS, Lou Gherig's Disease and Parkinson's Disease. Conditions: in vivo; cited from earlier work.
Assay [2] concerns paresis/paralysis of the tongue, larynx, pharynx, esophagus, urinary bladder sphincter, muscles of the lumbar and lumbo-sacral spine and of the pelvis and …. Description: Opiate treatment of dogs with neuropathic paresis/paralysis (UROS/OPS case studies). Conditions: dog, in vivo.
Source text: In order to clinically diagnose and/or evaluate the effectiveness of a dose of an anti-opiopathic active agent or formulation, over time, when being used to treat an opiopathic ailment, the following grading protocol can be employed to quantify and document function of the target muscle(s) and/or organ(s).
In grading the evaluations, an organ is considered to be neurologically normal when there is no neuropathology affecting its function. Because in most cases an organ can be clearly identified as having normal neurologic function, decreased neurologic function (paresis), or no neurologic function (paralysis), the documenting of the degree of remaining neurologic function of an organ lends itself to a simple grading system. An organ that functions normally and has no observable signs or symptoms is considered to be neurologically normal and receives the lowest score (0). An organ that has no function as a result of a neurologic/neurogenic ailment and is paralyzed, receives the highest score (10). An organ that has a partial loss of function (paresis) receives a score between (1) and (9), depending on the degree of function remaining. A decrease of the score of a function after administration of an anti-opiopathic active agent or formulation, indicates effectiveness roughly proportional to the relative decrease. […]
For assay [3], the system named is central pain in MS patients. Conditions: intravenous 1.0 mg/ml morphine in physiological saline, response only after high doses; cited from earlier work.

On to `COc1ccc2c3c1O[C@H]1C(=O)CC[C@H]4[C@@H](C2)N(C)CC[C@]314` [hydrocodone], for which the reversal of paresis/paralysis entry in the assay on paresis/paralysis is “successful reversal”. As for `CN1CC[C@]23c4c5ccc(O)c4O[C@H]2[C@@H](O)C=C[C@H]3[C@H]1C5.O=S(=O)(O)O` [morphine sulfate], the reversal of paresis/paralysis result in the assay on paresis/paralysis is reported as “successful reversal”. For the molecule `O=C1CC[C@@]2(O)[C@H]3Cc4ccc(O)c5c4[C@@]2(CCN3CC2CC2)[C@H]1O5` [naltrexone], the treatment outcome in assay [1] is given as “limited success”. Turning to `COc1ccc2c3c1O[C@H]1C(=O)CC[C@@]4(O)[C@@H](C2)N(C)CC[C@]314` [oxycodone], in assay [2], the “reversing paresis/paralysis in the larynx” value is “effective” and the “treating urinary bladder sphincter paresis/paralysis” value is on record as “effective”. In the assay with paresis/paralysis, the reversal of paresis/paralysis result was “successful reversal”. For `CN1CC[C@]23c4c5ccc(O)c4O[C@H]2[C@@H](O)C=C[C@H]3[C@H]1C5` [morphine], in assay [3], the “responsiveness of neuropathic (central) pain” value is listed as “poorly responsive, but not totally unresponsive”.

The values above are taken from patent US20070232638A1, “Opiopathies” (priority 2006, published 2007).
